Data from ChEMBL document CHEMBL3621169, “Synthesis of tetrazole compounds as a novel type of potential antimicrobial agents and their synergistic effects with clinical drugs and interactions with calf thymus DNA” (Medchemcomm, 2015).
≈ marks a conversion by molar mass, not a printed value.

System: Staphylococcus aureus
Assay: Antibacterial activity against Staphylococcus aureus ATCC 25923 after 24 hrs by micro broth dilution method
Format: functional
Conditions: ATCC 25923, 24 h

Compound	MIC [µg/mL]
Cc1ccc(N(CC#N)Cc2ccc(F)cc2F)cc1	128 (≈ 470 µM)
Fc1ccc(CN(Cc2nnn[nH]2)c2ccccc2)c(F)c1	64 (≈ 212 µM)
COc1ccc(N(CC#N)Cc2ccc(Cl)cc2Cl)cc1	128 (≈ 398 µM)
Clc1ccc(CN(Cc2nnn[nH]2)c2ccccc2)cc1	64 (≈ 214 µM)
CCCCCCCCN(CC#N)c1ccccc1	256 (≈ 1050 µM)
Clc1ccc(CN(Cc2nnn[nH]2)c2ccccc2)cc1Cl	128 (≈ 383 µM)
N#CCN(Cc1ccc(Cl)c(Cl)c1)c1ccccc1	256 (≈ 879 µM)

System: Aspergillus flavus
Assay: Antifungal activity against Aspergillus flavus after 24 hrs by micro broth dilution method
Format: functional
Conditions: not given

Compound	MIC [µg/mL]
Cc1ccc(N(CC#N)Cc2ccc(F)cc2F)cc1	64 (≈ 235 µM)
Fc1ccc(CN(Cc2nnn[nH]2)c2ccccc2)c(F)c1	32 (≈ 106 µM)
COc1ccc(N(CC#N)Cc2ccc(Cl)cc2Cl)cc1	128 (≈ 398 µM)
Clc1ccc(CN(Cc2nnn[nH]2)c2ccccc2)cc1	32 (≈ 107 µM)
CCCCCCCCN(CC#N)c1ccccc1	256 (≈ 1050 µM)
Clc1ccc(CN(Cc2nnn[nH]2)c2ccccc2)cc1Cl	32 (≈ 95.7 µM)
N#CCN(Cc1ccc(Cl)c(Cl)c1)c1ccccc1	256 (≈ 879 µM)

System: Candida albicans
Assay: Antifungal activity against Candida albicans ATCC 90029 after 24 hrs by micro broth dilution method
Format: functional
Conditions: ATCC 90029, 24 h

Compound	MIC [µg/mL]
Cc1ccc(N(CC#N)Cc2ccc(F)cc2F)cc1	64 (≈ 235 µM)
Fc1ccc(CN(Cc2nnn[nH]2)c2ccccc2)c(F)c1	64 (≈ 212 µM)
COc1ccc(N(CC#N)Cc2ccc(Cl)cc2Cl)cc1	64 (≈ 199 µM)
Clc1ccc(CN(Cc2nnn[nH]2)c2ccccc2)cc1	16 (≈ 53.4 µM)
CCCCCCCCN(CC#N)c1ccccc1	256 (≈ 1050 µM)
Clc1ccc(CN(Cc2nnn[nH]2)c2ccccc2)cc1Cl	64 (≈ 191 µM)
N#CCN(Cc1ccc(Cl)c(Cl)c1)c1ccccc1	64 (≈ 220 µM)

System: Staphylococcus aureus
Assay: Antibacterial activity against methicillin-resistant Staphylococcus aureus N315 after 24 hrs by micro broth dilution method
Format: functional
Conditions: N315, 24 h

Compound	MIC [µg/mL]
Cc1ccc(N(CC#N)Cc2ccc(F)cc2F)cc1	256 (≈ 940 µM)
Fc1ccc(CN(Cc2nnn[nH]2)c2ccccc2)c(F)c1	32 (≈ 106 µM)
COc1ccc(N(CC#N)Cc2ccc(Cl)cc2Cl)cc1	128 (≈ 398 µM)
Clc1ccc(CN(Cc2nnn[nH]2)c2ccccc2)cc1	128 (≈ 427 µM)
CCCCCCCCN(CC#N)c1ccccc1	256 (≈ 1050 µM)
Clc1ccc(CN(Cc2nnn[nH]2)c2ccccc2)cc1Cl	128 (≈ 383 µM)
N#CCN(Cc1ccc(Cl)c(Cl)c1)c1ccccc1	256 (≈ 879 µM)

System: not listed separately
Assay: Ionization constant, pKa of the compound by UV spectroscopy
Format: physicochemical
Conditions: not given

Compound	pKa
Fc1ccc(CN(Cc2nnn[nH]2)c2ccccc2)c(F)c1	4.13
Clc1ccc(CN(Cc2nnn[nH]2)c2ccccc2)cc1	4.38
Clc1ccc(CN(Cc2nnn[nH]2)c2ccccc2)cc1Cl	4.49

System: Bacillus sp.
Assay: Antibacterial activity against Bacillus proteus ATCC 13315 after 24 hrs by micro broth dilution method
Format: functional
Conditions: Bacillus sp. (in: firmicutes), ATCC 13315, 24 h

Compound	MIC [µg/mL]
Cc1ccc(N(CC#N)Cc2ccc(F)cc2F)cc1	128 (≈ 470 µM)
Fc1ccc(CN(Cc2nnn[nH]2)c2ccccc2)c(F)c1	64 (≈ 212 µM)
COc1ccc(N(CC#N)Cc2ccc(Cl)cc2Cl)cc1	128 (≈ 398 µM)
Clc1ccc(CN(Cc2nnn[nH]2)c2ccccc2)cc1	32 (≈ 107 µM)
CCCCCCCCN(CC#N)c1ccccc1	256 (≈ 1050 µM)
Clc1ccc(CN(Cc2nnn[nH]2)c2ccccc2)cc1Cl	128 (≈ 383 µM)
N#CCN(Cc1ccc(Cl)c(Cl)c1)c1ccccc1	256 (≈ 879 µM)

System: Escherichia coli
Assay: Antibacterial activity against Escherichia coli DH52 after 24 hrs by micro broth dilution method
Format: functional
Conditions: DH52, 24 h

Compound	MIC [µg/mL]
Cc1ccc(N(CC#N)Cc2ccc(F)cc2F)cc1	128 (≈ 470 µM)
Fc1ccc(CN(Cc2nnn[nH]2)c2ccccc2)c(F)c1	64 (≈ 212 µM)
COc1ccc(N(CC#N)Cc2ccc(Cl)cc2Cl)cc1	256 (≈ 797 µM)
Clc1ccc(CN(Cc2nnn[nH]2)c2ccccc2)cc1	32 (≈ 107 µM)
CCCCCCCCN(CC#N)c1ccccc1	128 (≈ 524 µM)
Clc1ccc(CN(Cc2nnn[nH]2)c2ccccc2)cc1Cl	64 (≈ 191 µM)
N#CCN(Cc1ccc(Cl)c(Cl)c1)c1ccccc1	256 (≈ 879 µM)

System: Micrococcus luteus
Assay: Antibacterial activity against Micrococcus luteus ATCC 4698 after 24 hrs by micro broth dilution method
Format: functional
Conditions: ATCC 4698, 24 h

Compound	MIC [µg/mL]
Cc1ccc(N(CC#N)Cc2ccc(F)cc2F)cc1	128 (≈ 470 µM)
Fc1ccc(CN(Cc2nnn[nH]2)c2ccccc2)c(F)c1	64 (≈ 212 µM)
COc1ccc(N(CC#N)Cc2ccc(Cl)cc2Cl)cc1	256 (≈ 797 µM)
Clc1ccc(CN(Cc2nnn[nH]2)c2ccccc2)cc1	64 (≈ 214 µM)
CCCCCCCCN(CC#N)c1ccccc1	256 (≈ 1050 µM)
Clc1ccc(CN(Cc2nnn[nH]2)c2ccccc2)cc1Cl	128 (≈ 383 µM)
N#CCN(Cc1ccc(Cl)c(Cl)c1)c1ccccc1	256 (≈ 879 µM)

System: Bacillus spizizenii
Assay: Antibacterial activity against Bacillus subtilis ATCC 6633 after 24 hrs by micro broth dilution method
Format: functional
Conditions: ATCC 6633, 24 h

Compound	MIC [µg/mL]
Cc1ccc(N(CC#N)Cc2ccc(F)cc2F)cc1	256 (≈ 940 µM)
Fc1ccc(CN(Cc2nnn[nH]2)c2ccccc2)c(F)c1	64 (≈ 212 µM)
COc1ccc(N(CC#N)Cc2ccc(Cl)cc2Cl)cc1	256 (≈ 797 µM)
Clc1ccc(CN(Cc2nnn[nH]2)c2ccccc2)cc1	32 (≈ 107 µM)
CCCCCCCCN(CC#N)c1ccccc1	256 (≈ 1050 µM)
Clc1ccc(CN(Cc2nnn[nH]2)c2ccccc2)cc1Cl	64 (≈ 191 µM)
N#CCN(Cc1ccc(Cl)c(Cl)c1)c1ccccc1	128 (≈ 440 µM)

System: Candida
Assay: Antifungal activity against Candida mycoderma after 24 hrs by micro broth dilution method
Format: functional
Conditions: not given

Compound	MIC [µg/mL]
Cc1ccc(N(CC#N)Cc2ccc(F)cc2F)cc1	128 (≈ 470 µM)
Fc1ccc(CN(Cc2nnn[nH]2)c2ccccc2)c(F)c1	16 (≈ 53.1 µM)
COc1ccc(N(CC#N)Cc2ccc(Cl)cc2Cl)cc1	64 (≈ 199 µM)
Clc1ccc(CN(Cc2nnn[nH]2)c2ccccc2)cc1	16 (≈ 53.4 µM)
CCCCCCCCN(CC#N)c1ccccc1	64 (≈ 262 µM)
Clc1ccc(CN(Cc2nnn[nH]2)c2ccccc2)cc1Cl	16 (≈ 47.9 µM)
N#CCN(Cc1ccc(Cl)c(Cl)c1)c1ccccc1	128 (≈ 440 µM)

System: Cyberlindnera jadinii
Assay: Antifungal activity against Candida utilis ATCC 9950 after 24 hrs by micro broth dilution method
Format: functional
Conditions: Williopsis jadinii, ATCC 9950, 24 h

Compound	MIC [µg/mL]
Cc1ccc(N(CC#N)Cc2ccc(F)cc2F)cc1	128 (≈ 470 µM)
Fc1ccc(CN(Cc2nnn[nH]2)c2ccccc2)c(F)c1	16 (≈ 53.1 µM)
COc1ccc(N(CC#N)Cc2ccc(Cl)cc2Cl)cc1	128 (≈ 398 µM)
Clc1ccc(CN(Cc2nnn[nH]2)c2ccccc2)cc1	32 (≈ 107 µM)
CCCCCCCCN(CC#N)c1ccccc1	256 (≈ 1050 µM)
Clc1ccc(CN(Cc2nnn[nH]2)c2ccccc2)cc1Cl	32 (≈ 95.7 µM)
N#CCN(Cc1ccc(Cl)c(Cl)c1)c1ccccc1	256 (≈ 879 µM)

System: Shigella dysenteriae
Assay: Antibacterial activity against Shigella dysenteriae ATCC 51252 after 24 hrs by micro broth dilution method
Format: functional
Conditions: ATCC 51252, 24 h

Compound	MIC [µg/mL]
Cc1ccc(N(CC#N)Cc2ccc(F)cc2F)cc1	128 (≈ 470 µM)
Fc1ccc(CN(Cc2nnn[nH]2)c2ccccc2)c(F)c1	64 (≈ 212 µM)
COc1ccc(N(CC#N)Cc2ccc(Cl)cc2Cl)cc1	128 (≈ 398 µM)
Clc1ccc(CN(Cc2nnn[nH]2)c2ccccc2)cc1	64 (≈ 214 µM)
CCCCCCCCN(CC#N)c1ccccc1	512 (≈ 2100 µM)
Clc1ccc(CN(Cc2nnn[nH]2)c2ccccc2)cc1Cl	64 (≈ 191 µM)
N#CCN(Cc1ccc(Cl)c(Cl)c1)c1ccccc1	128 (≈ 440 µM)

System: not listed separately
Assay: n-octanol/water partition coefficient, log P of the compound at 25 deg C after 24 hrs by saturation shake flask based UV spectroscopy
Format: physicochemical
Conditions: not given

Compound	logP at 24 h
Fc1ccc(CN(Cc2nnn[nH]2)c2ccccc2)c(F)c1	1.36
Clc1ccc(CN(Cc2nnn[nH]2)c2ccccc2)cc1	1.39
Clc1ccc(CN(Cc2nnn[nH]2)c2ccccc2)cc1Cl	1.63

System: Pseudomonas aeruginosa
Assay: Antibacterial activity against Pseudomonas aeruginosa ATCC 27853 after 24 hrs by micro broth dilution method
Format: functional
Conditions: ATCC 27853, 24 h

Compound	MIC [µg/mL]
Cc1ccc(N(CC#N)Cc2ccc(F)cc2F)cc1	256 (≈ 940 µM)
Fc1ccc(CN(Cc2nnn[nH]2)c2ccccc2)c(F)c1	32 (≈ 106 µM)
COc1ccc(N(CC#N)Cc2ccc(Cl)cc2Cl)cc1	256 (≈ 797 µM)
Clc1ccc(CN(Cc2nnn[nH]2)c2ccccc2)cc1	64 (≈ 214 µM)
CCCCCCCCN(CC#N)c1ccccc1	512 (≈ 2100 µM)
Clc1ccc(CN(Cc2nnn[nH]2)c2ccccc2)cc1Cl	64 (≈ 191 µM)
N#CCN(Cc1ccc(Cl)c(Cl)c1)c1ccccc1	256 (≈ 879 µM)
